Measured values as given in patent publication US10960017B2, “Sorafenib or regorafenib troxacitabine phosphoramidate prodrug combination therapy for liver cancer” (priority 2016, dated 2021).
Read-outs that look alike come from different tables or passages of the source.

Assays:
[1] = tested on: human hepatocellular carcinoma cell line Hep3B; assay: Combinatorial evaluation in cell culture (Hep3B proliferation, Cell Counting Kit-8, MacSynergy II); assay type: cell-based; conditions: combination with sorafenib, Hep3B cells, 6 days incubation; for anti-proliferative interaction with sorafenib (MacSynergy II classification): 95% confidence; for log volume at 95% confidence (synergy volume calculated by MacSynergy II): log volumes >9 indicate strong synergy
Method: General Procedure for Combinatorial Evaluation in Cell Culture
For analysis of the human hepatocellular carcinoma cell line Hep3B, from DSMZ (ACC 93), was used. Hep3B cells were cultured as epithelial-like cells in monolayers in 90% MEM (with Earle's salts)+10% h.i. FBS+2 mM L-glutamine+50 u/ml Penicillin/0.05 mg/ml Streptomycin as culture medium. Confluent cultures were split 1:4 to 1:10 every 3-5 days using trypsin/EDTA, and re-seeded at 0.5−1×10^6 cells/80 cm^2.
Cell culture flask is washed 2 times with 5 ml PBS and PBS discarded. Add 1.5 ml of trypsin and put the flask into the incubator for 3-4 minutes. Shake the flask and add 10 ml of DMEM, 10% FCS, 50 μ/ml Penicillin/0.05 mg/ml Streptomycin without phenol red. The cells were counted using the Scepter cell counter, Hep3B cells were diluted to 20×10^3 cells/ml in complete cell medium without phenol red. 100 μl cell suspension/well was seeded in 96-well cell assay plates. Two replicate plates for each combination.
Test compounds were tested at nine concentrations, either 5 μM to 0.00076 μM or 10 μM to 0.0015 μM, in a 1:3 dilution series. Sorafenib was tested at seven concentrations, 20 μM to […], in a 1:2 dilution series. The four dilution plates were prepared with the Echo instrument.
The compound dilutions were 2 times the desired final concentrations. The volume in the dilution plates in each well are 125 μl of medium with compounds.
100 μl from the dilution plate with compounds in the different concentrations were transferred to the corresponding well of the cell assay plate with 100 μl, (200 μl/well in total volume). Incubate the plates for 6 days, at 37° C., 5% CO2.
10 μl of CCK Kit-8 was added to each well using a multi-channel pipette (submerging the tips below the surface in each well). Plates were incubated for 4 hours at 37° C., 5% CO2.
The plate was read in the spectrophotometer at a wavelength of 450 nm, with a reference filter of 650 nm. Average absorbance was >1 to <3 for the vehicle treated cell controls.
Raw data from the two plates of each combination were entered into the Mac Synergy II shareware where the combined effect was calculated and plotted in a 3D dose-response surface graph. Theoretical additive interactions are calculated from the dose response curves for each drug individually. Calculated additive surface is subtracted from experimentally determined dose-response surfaces to reveal regions of non-additive activity. The final results are given as synergy or antagonism volumes (μM^2%) according to guide lines given in the manual for MacSynergy II:
Synergy volumes: • 1. Values of synergy or antagonism under 25 μM^2% (log volumes <2) at 95% confidence should be regarded as insignificant and are probably not important. • 2. Values between 25 μM^2% and 50 μM^2% (log volumes >2 and <5) should be considered a minor but significant amount of synergy. • 3. Values between 50 μM^2% and 100 μM^2% (log volumes >5 and <9) indicate moderate synergy or antagonism. This interaction may be important in vivo. • 4. Values over 100 μM^2% (log volumes >9) indicate strong synergy and are probably important in vivo.

[2] = cited from earlier work

Compound	anti-proliferative interaction with sorafenib (MacSynergy II classification) [1]	log volume at 95% confidence (synergy volume calculated by MacSynergy II) [1]	other results
CCC[C@H](C)OC(=O)[C@H](C)NP(=O)(OC[C@H]1OC[C@@H](n2ccc(N)nc2=O)O1)Oc1ccccc1 (single isomer, unassigned) [Example 1]	strong anti-proliferative synergy	76	–
CC[C@@H](C)OC(=O)[C@H](C)NP(=O)(OC[C@H]1OC[C@@H](n2cc(F)c(N)nc2=O)O1)Oc1ccccc1 (single isomer, unassigned) [Example 2]	strong anti-proliferative synergy	11	–
CCCC(CCC)COC(=O)[C@H](C)NP(=O)(OC[C@H]1OC[C@@H](n2ccc(N)nc2=O)O1)Oc1ccccc1 (single isomer, unassigned) [Example 3]	strong anti-proliferative synergy	32	–
CCC[C@H](C)OC(=O)[C@H](C)NP(=O)(OC[C@H]1OC[C@@H](n2ccc(N)nc2=O)O1)Oc1ccc(Br)cc1 (single isomer, unassigned) [Example 4]	strong anti-proliferative synergy	40	–
CC[C@@H](C)OC(=O)[C@@H](NP(=O)(OC[C@H]1OC[C@@H](n2ccc(N)nc2=O)O1)Oc1ccccc1)C(C)C (single isomer, unassigned) [Example 5]	strong anti-proliferative synergy	46	–
CNC(=O)c1cc(Oc2ccc(NC(=O)Nc3ccc(Cl)c(C(F)(F)F)c3)c(F)c2)ccn1 [Regorafenib monohydrate, 4-[4-({[4-chloro-3-(trifluoromethyl)phenyl]carbamoyl}amino)-3-fluorophenoxy]-N-methylpyridine-2-carboxamide monohydrate]	–	–	solubility ([2]; acetone): sparingly soluble; solubility ([2]; acetonitrile): slightly soluble; solubility ([2]; aqueous media): practically insoluble; solubility ([2]; ethanol): slightly soluble; solubility ([2]; ethyl acetate): slightly soluble; solubility ([2]; methanol): slightly soluble
CNC(=O)c1cc(Oc2ccc(NC(=O)Nc3ccc(Cl)c(C(F)(F)F)c3)cc2)ccn1.Cc1ccc(S(=O)(=O)O)cc1 [Sorafenib tosylate, 4-(4-{3-[4-Chloro-3(trifluoromethyl)phenyl]ureido}phenoxy) N-methylpyridine-2-carboxamide 4-methylbenzenesulfonate]	–	–	solubility ([2]; PEG 400): soluble; solubility ([2]; aqueous media): practically insoluble; solubility ([2]; ethanol): slightly soluble
